System in the first series: not given
Test: not given
Settings: not given
As usually defined, the melting point is the temperature of the solid-liquid transition. Turning to `COc1ccccc1/C=C/c1ccccc1F` [trans stilbene 10, (E)-1-Fluoro-2-(2-methoxystyryl)benzene], the melting point fell in the range of 34 to 35 °C.
On the same count and under the same terms, under `COc1cccc(/C=C/c2ccc(F)cc2)c1OC` [trans stilbene 17, (E)-1-(4-Fluorostyryl)-2,3-dimethoxybenzene] stands 50 to 51 °C.
As to `COc1ccc(OC)c(/C=C/c2ccc(F)cc2)c1` [trans stilbene 18, (E)-2-(4-Fluorostyryl)-1,4-dimethoxybenzene], the melting point lay within 58 to 59 °C.
The compound `Cc1ccc(/C=C/c2ccc(F)c(F)c2)cc1` [trans stilbene 22, (E)-1,2-Difluoro-4-(4-methylstyryl)benzene] showed a melting point of 90 to 92 °C.
Regarding `COc1ccc(/C=C/c2cc(F)ccc2F)cc1` [trans stilbene 23, (E)-1,4-Difluoro-2-(4-methoxystyryl)benzene], the melting point fell in the range of 109 to 110 °C.
The same measure, in the same setting: under `Fc1ccc(/C=C/c2ccccc2F)cc1F` [trans stilbene 24, (E)-1,2-Difluoro-4-(2-fluorostyryl)benzene] stands 85 to 86 °C; under `COc1ccc(/C=C/c2ccc(F)c(F)c2)cc1` [trans stilbene 26, (E)-1,2-Difluoro-4-(4-methoxystyryl)benzene], 73 to 74 °C.
`Fc1cccc(/C=C/c2ccc(F)c(F)c2)c1` [trans stilbene 30, (E)-1,2-Difluoro-4-(3-fluorostyryl)benzene]: the melting point is 48 to 49 °C.
As to `Fc1cccc(/C=C/c2cc(F)ccc2F)c1` [trans stilbene 34, (E)-1,4-Difluoro-2-(3-fluorostyryl)benzene], the melting point lay within 73 to 74 °C.
The compound `Fc1cccc(/C=C/c2ccc(F)cc2F)c1` [trans stilbene 35, (E)-2,4-Difluoro-1-(3-fluorostyryl)benzene] showed a melting point of 60 to 61 °C.
For the compound `Fc1ccc(/C=C/c2ccccc2F)c(F)c1` [trans stilbene 36, (E)-2,4-Difluoro-1-(2-fluorostyryl)benzene], the melting point was in the range of 84 to 85 °C.
In turn, `Cc1ccc(/C=C/c2ccc(F)cc2F)cc1` [trans stilbene 37, (E)-2,4-Difluoro-1-(4-methylstyryl)benzene] came in with a melting point of 72 to 73 °C.
`Fc1ccc(/C=C/c2cc(F)ccc2F)cc1` [trans stilbene 40, (E)-1,4-Difluoro-2-(4-fluorostyryl)benzene]: the melting point was 76 to 77 °C.
On the same count and under the same terms, under `COc1cccc(/C=C/c2ccc(C)cc2)c1OC` [trans stilbene 48, (E)-1,2-Dimethoxy-3-(4-methylstyryl)benzene] stands 38 to 40 °C; under `COc1cccc(/C=C/c2ccccc2OC)c1` [trans stilbene 49, (E)-1-Methoxy-2-(3-methoxystyryl)benzene], 49 to 50 °C; under `COc1cccc(/C=C/c2cc(OC)ccc2OC)c1` [trans stilbene 50, (E)-1,4-Dimethoxy-2-(3-methoxystyryl)benzene], 48 to 49 °C.
Still for that read-out and setting: under `COc1cccc(/C=C/c2ccc(C(F)(F)F)cc2)c1OC` [trans stilbene 54, (E)-1,2-Dimethoxy-3-(4-(trifluoromethyl)styryl)benzene] stands 67 to 69 °C.

Another series deals with Nrf2. As to the kind of experiment: Nrf2-ARE reporter-HepG2 stable cell line luciferase reporter assay for activators of Nrf2. Format: cell-based. Particulars: Nrf2-ARE reporter-HepG2 cells, from dose-response curves; read-out: EC50, concentration that produced 50% activation of Nrf2. As for the experimental part:
A Nrf2-ARE reporter-HepG2 stable cell line (BPS Bioscience, San Diego, Calif.) is grown in a humidified atmosphere at 37° C. in 5% CO295% air. The cells are maintained in MEM medium with Earles balanced salts and L-glutamine supplemented with 10% fetal bovine serum (FBS), 1 mM sodium pyruvate, 1% non-essential amino acids, 100 units/ml penicillin, 100 μg/ml streptomycin, and 400 μg/ml Geneticin. One day prior to treatment, the Nrf2-ARE cells are plated into 24-well cell culture plates at approximately 30% confluency in the above media without Geneticin. The following day, fresh media with or without substituted trans stilbene or sulforaphane is applied to the cells. DMSO concentrations are kept at 0.1%. The cells are again placed in a humidified atmosphere at 37° C. in 5% CO2/95% air for 5 hours. Plate wells are gently washed with phosphate buffered saline (PBS) pH 7.4 and lysed with 1× passive lysis buffer (Promega, Madison, Wis., USA). The subsequent lysates are analyzed with the Luciferase Assay System (Promega) utilizing a GloMax 20/20 luminometer (Promega, Sunnyvale, Calif., USA). The firefly luciferase relative light units are normalized to protein (mg/ml) with BCATM Protein Assay Kit protein (Pierce, Rockford, Ill., USA)
Regarding `Oc1ccc(C=Cc2cc(O)cc(O)c2)cc1` [Resveratrol, resveratrol], the EC50 was 5.4 µM.
In the case of `C[S+]([O-])CCCCN=C=S` (centres unmarked) [sulforaphane], the EC50 was 1.2 µM.

The series is the same for the next values; noted with them: Nrf2-ARE reporter-HepG2 cells, screened at 15 μM.
On to `COc1cccc(/C=C/c2ccc(C(F)(F)F)cc2)c1OC` [trans stilbene 54, (E)-1,2-Dimethoxy-3-(4-(trifluoromethyl)styryl)benzene], for which the “fold activation (extent of activation) of Nrf2” value is 65.5 fold.

Values taken from patent US20190160021A1, “Substituted Stilbenes as Inhibitors of NF-kappaB and Activators of Nrf2” (STC.UNM, priority 2017, published 2019).
